Experiments:
Assay in all cases: Large panel kinase profiling
Assay type in all cases: biochemical
Details in all cases: 1 μM test article, 1 mM ATP
PDGFRB = PDGFRB (Homo sapiens, UniProt P09619)
How it was run: (§1)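 With ATP fixed at 1 mM, each kinase was exposed to 1 μM compound in a PhosphoSens CSox-Sensor reaction. Sealed plates were incubated at 30° C. and read in kinetic mode.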

MAPK8/JNK1 = biological target: T1, MAPK8/JNK1 (Homo sapiens, UniProt P45983)
T1 construct: AssayQuant Technologies, Inc. (service provider)
T1 sequence (P45983 whole entry): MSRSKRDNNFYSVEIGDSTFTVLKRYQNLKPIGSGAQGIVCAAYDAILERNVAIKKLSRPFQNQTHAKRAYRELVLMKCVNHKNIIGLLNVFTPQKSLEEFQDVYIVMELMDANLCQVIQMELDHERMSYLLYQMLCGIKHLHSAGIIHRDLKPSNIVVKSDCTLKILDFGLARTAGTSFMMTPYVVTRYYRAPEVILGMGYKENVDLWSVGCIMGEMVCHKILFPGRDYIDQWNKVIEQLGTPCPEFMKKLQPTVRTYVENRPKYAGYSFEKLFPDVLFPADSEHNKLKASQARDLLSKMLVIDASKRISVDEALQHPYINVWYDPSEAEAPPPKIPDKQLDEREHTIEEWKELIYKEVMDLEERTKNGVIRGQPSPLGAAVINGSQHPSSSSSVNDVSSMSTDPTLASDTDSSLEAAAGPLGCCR
How it was run: as §1

HIPK2 = biological target: T2, HIPK2 (Homo sapiens, UniProt Q9H2X6)
T2 construct: AssayQuant Technologies, Inc. (service provider)
T2 sequence (Q9H2X6 whole entry, species assumed): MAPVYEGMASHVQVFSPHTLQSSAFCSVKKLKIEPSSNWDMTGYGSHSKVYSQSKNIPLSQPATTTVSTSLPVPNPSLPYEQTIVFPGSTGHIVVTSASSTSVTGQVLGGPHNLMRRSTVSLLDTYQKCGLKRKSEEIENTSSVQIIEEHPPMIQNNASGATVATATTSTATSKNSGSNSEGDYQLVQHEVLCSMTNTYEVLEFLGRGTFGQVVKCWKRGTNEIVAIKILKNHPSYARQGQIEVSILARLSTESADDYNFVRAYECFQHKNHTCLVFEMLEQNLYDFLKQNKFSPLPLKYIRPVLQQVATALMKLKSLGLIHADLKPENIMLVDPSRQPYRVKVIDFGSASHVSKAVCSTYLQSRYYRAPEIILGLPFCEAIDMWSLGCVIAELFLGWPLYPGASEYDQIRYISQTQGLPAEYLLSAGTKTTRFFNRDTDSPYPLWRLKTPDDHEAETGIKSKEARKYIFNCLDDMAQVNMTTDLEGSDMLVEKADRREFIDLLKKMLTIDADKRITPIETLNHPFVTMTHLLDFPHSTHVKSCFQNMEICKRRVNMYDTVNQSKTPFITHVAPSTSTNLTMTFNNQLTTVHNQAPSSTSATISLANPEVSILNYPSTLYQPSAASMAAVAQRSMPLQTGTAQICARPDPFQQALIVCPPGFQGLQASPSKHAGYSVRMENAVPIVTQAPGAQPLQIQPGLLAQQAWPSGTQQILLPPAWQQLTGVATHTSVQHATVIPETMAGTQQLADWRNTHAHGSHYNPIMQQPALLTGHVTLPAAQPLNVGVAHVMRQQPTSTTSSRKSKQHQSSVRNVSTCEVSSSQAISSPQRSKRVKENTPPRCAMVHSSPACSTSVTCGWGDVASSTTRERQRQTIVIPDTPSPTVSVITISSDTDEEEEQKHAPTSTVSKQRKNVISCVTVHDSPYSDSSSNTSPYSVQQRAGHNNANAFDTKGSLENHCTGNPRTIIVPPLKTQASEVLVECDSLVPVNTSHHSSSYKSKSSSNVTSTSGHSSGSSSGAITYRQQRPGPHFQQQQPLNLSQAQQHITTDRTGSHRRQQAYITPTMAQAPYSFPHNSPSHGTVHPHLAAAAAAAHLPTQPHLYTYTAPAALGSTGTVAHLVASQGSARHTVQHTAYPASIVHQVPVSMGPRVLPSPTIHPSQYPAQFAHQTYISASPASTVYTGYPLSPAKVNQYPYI
How it was run: as §1

NEK3 = biological target: T3, NEK3 (Homo sapiens, UniProt P51956)
T3 construct: AssayQuant Technologies, Inc. (assay service)
T3 sequence (P51956 1-506): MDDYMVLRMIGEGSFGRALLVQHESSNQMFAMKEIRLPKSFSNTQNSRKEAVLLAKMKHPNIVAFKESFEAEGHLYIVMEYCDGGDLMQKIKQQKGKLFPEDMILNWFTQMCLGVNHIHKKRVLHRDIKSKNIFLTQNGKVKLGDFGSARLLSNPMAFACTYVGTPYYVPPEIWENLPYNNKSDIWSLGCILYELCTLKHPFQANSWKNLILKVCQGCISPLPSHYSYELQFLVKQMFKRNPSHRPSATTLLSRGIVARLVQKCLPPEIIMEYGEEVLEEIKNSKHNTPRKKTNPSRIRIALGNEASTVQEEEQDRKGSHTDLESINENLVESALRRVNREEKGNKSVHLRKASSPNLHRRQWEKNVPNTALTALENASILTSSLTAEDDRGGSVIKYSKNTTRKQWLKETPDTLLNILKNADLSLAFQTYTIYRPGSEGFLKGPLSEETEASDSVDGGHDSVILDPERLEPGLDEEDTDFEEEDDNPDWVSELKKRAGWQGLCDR
How it was run: as §1

ALK = ALK (Homo sapiens, UniProt Q9UM73)
ALK, sequence (Q9UM73 19-1620): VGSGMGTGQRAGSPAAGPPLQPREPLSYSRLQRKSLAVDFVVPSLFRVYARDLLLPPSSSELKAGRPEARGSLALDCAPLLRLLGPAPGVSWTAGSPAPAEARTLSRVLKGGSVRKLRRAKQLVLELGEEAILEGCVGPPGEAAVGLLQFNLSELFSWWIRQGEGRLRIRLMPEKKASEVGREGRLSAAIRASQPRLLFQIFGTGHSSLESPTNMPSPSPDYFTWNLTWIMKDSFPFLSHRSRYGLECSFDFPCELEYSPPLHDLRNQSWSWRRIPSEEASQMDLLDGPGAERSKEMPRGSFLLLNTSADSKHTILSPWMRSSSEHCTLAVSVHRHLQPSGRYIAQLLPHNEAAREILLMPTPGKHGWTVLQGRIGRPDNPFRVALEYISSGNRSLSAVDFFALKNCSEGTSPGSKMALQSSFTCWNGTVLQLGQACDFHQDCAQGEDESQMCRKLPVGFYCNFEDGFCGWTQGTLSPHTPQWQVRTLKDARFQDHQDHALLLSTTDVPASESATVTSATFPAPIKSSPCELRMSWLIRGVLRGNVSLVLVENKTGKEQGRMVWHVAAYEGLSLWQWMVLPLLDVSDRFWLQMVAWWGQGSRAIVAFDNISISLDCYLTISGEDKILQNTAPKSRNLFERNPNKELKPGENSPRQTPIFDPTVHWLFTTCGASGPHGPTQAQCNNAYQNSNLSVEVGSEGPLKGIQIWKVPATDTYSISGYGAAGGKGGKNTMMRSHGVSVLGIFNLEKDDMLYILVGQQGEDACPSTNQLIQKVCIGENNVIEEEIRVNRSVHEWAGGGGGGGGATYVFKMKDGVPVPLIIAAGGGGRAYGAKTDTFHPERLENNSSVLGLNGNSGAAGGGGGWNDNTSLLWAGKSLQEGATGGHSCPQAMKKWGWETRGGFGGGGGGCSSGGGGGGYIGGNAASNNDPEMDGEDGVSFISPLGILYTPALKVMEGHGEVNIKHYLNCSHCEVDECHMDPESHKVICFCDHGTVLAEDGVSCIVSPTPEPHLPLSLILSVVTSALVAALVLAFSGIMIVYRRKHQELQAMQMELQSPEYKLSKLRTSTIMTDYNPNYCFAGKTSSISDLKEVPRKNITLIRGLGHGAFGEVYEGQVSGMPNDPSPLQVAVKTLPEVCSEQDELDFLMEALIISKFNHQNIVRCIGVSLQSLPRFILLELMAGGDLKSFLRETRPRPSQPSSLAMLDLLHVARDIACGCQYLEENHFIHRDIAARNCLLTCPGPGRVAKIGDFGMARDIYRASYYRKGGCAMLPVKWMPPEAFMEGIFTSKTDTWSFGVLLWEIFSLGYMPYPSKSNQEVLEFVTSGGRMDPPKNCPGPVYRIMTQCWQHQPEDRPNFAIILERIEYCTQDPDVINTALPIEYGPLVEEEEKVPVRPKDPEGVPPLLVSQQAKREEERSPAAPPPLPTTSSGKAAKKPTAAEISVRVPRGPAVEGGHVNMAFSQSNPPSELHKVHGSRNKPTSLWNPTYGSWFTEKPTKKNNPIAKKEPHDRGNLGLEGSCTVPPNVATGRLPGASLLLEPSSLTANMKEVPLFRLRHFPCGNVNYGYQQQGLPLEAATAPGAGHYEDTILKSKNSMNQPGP
How it was run: as §1

TSSK2 = biological target: T4, TSSK2 (Homo sapiens, UniProt Q96PF2)
T4 construct: AssayQuant Technologies, Inc. (contract laboratory that ran the panel)
T4 sequence (Q96PF2 1-358): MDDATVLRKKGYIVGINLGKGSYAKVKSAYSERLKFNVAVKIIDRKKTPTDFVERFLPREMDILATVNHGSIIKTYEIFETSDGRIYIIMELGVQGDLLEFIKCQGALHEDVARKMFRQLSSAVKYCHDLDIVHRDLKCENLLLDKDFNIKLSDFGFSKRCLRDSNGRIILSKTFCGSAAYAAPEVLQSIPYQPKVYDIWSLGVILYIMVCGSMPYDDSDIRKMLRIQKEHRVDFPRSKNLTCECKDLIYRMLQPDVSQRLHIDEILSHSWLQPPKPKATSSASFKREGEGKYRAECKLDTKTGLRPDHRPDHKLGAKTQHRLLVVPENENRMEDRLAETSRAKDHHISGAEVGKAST
How it was run: as §1

STK33 = biological target: T5, STK33 (Homo sapiens, UniProt Q9BYT3)
T5 construct: AssayQuant Technologies, Inc. (contract assay)
T5 sequence (Q9BYT3 whole entry, species assumed): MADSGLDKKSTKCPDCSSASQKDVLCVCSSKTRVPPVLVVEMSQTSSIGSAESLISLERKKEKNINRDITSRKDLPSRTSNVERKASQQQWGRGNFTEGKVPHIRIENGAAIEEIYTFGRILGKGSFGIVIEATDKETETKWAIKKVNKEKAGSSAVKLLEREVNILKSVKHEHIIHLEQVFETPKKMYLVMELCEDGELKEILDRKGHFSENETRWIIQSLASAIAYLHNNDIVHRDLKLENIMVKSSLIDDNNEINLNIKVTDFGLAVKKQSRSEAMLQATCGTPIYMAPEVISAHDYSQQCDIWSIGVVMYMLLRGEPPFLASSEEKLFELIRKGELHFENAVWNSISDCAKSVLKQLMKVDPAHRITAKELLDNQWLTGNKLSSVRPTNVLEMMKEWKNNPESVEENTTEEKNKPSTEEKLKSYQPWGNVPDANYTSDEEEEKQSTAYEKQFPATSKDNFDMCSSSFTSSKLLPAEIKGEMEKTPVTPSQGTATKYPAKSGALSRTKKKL
How it was run: as §1

TEC = biological target: T6, TEC (Homo sapiens, UniProt P42680)
T6 construct: AssayQuant Technologies, Inc. (contract laboratory that ran the panel)
T6 sequence (P42680 1-631): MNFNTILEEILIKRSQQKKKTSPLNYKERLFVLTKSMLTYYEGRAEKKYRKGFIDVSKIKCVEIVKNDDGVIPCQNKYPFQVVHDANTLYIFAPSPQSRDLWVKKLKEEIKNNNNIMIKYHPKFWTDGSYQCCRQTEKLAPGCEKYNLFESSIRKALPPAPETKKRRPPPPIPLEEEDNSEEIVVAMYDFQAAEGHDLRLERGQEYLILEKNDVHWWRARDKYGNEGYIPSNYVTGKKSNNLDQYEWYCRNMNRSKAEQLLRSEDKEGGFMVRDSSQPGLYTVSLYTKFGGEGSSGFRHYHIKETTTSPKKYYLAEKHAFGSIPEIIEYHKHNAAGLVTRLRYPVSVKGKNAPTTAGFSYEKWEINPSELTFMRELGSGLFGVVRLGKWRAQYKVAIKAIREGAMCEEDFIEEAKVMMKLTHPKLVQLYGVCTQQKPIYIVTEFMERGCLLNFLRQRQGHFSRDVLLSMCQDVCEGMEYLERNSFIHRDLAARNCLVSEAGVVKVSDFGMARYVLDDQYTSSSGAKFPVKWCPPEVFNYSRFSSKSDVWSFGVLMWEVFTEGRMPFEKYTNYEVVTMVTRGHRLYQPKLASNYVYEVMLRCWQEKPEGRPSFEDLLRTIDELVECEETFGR
How it was run: as §1

PTK2 = PTK2 (Homo sapiens, UniProt Q05397)
How it was run: as §1

PDGFRB, sequence (P09619 33-1106, species assumed): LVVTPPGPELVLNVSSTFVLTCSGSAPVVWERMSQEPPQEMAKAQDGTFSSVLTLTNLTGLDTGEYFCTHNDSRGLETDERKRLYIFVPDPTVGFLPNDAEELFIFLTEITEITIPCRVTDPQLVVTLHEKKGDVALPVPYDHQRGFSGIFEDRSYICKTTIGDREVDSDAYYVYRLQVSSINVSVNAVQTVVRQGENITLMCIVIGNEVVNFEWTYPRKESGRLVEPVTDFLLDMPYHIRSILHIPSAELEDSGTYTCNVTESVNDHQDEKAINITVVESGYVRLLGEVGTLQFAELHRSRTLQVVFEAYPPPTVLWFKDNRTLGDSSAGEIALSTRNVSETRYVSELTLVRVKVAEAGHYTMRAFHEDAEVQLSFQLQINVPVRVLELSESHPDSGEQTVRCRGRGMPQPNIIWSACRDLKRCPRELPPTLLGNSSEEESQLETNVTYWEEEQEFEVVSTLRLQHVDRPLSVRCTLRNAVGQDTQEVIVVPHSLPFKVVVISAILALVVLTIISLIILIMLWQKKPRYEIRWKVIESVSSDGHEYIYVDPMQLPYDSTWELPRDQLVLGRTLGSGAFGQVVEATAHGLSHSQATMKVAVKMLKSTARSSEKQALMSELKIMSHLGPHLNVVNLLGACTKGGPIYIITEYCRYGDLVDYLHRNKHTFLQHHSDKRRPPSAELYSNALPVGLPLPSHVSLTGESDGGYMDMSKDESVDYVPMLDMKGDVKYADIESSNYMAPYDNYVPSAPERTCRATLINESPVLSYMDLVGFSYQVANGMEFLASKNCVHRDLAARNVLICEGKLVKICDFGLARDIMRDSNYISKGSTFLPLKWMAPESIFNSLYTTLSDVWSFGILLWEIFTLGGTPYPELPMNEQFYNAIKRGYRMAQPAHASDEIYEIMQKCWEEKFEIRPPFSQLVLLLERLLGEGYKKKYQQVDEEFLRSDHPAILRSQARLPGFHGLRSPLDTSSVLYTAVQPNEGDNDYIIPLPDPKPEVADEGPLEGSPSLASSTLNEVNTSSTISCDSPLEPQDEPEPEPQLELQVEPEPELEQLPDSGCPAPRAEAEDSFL

Compound | inhibition at 1 µM (PDGFRB) [%] | inhibition at 1 µM (MAPK8/JNK1) [%] | inhibition at 1 µM (HIPK2) [%] | inhibition at 1 µM (NEK3) [%] | inhibition at 1 µM (ALK) [%] | inhibition at 1 µM (TSSK2) [%] | inhibition at 1 µM (STK33) [%] | inhibition at 1 µM (TEC) [%] | inhibition at 1 µM (PTK2) [%]
C=CC(=O)N1CCCC(c2c(F)cc(C(N)=O)c3[nH]c4c(c23)CCCCC4)C1 (single isomer, unassigned) [Compound 5-6] | -52.9 | -0.6 | -18.6 | -21.2 | -26.4 | 10.2 | -7.9 | 80.3 | -69.1
C=CC(=O)N1CCC[C@@H](c2c(F)cc(C(N)=O)c3[nH]c4c(c23)CCC4)C1 [Compound 10-2, (S)-8-(1-acryloylpiperidin-3-yl)-7-fluoro-1,2,3,4-tetrahydrocyclo-penta[b]indole-5-carboxamide] | 4.7 | 13.6 | -66.1 | -5 | -2.7 | 25.3 | 20.5 | 76.1 | -14.6
C=CC(=O)N1CCC[C@@H](c2c(F)cc(C(N)=O)c3[nH]c4c(c23)CC2(CC4)CC2)C1 [Compound 6-2, (S)-5-(1-acryloylpiperidin-3-yl)-6-fluoro-1,2,4,9-tetrahydrospiro[carbazole-3,1′-cyclopropane]-8-carboxamide] | 23.2 | 21.7 | -55.4 | -8.1 | 11.7 | 22.9 | -27.1 | 84.5 | 16.5

— patent US20220009920A1 (GB005, Inc., priority 2020, published 2022)
